Article PMC5267425, “Identification of small molecule modulators of HIV-1 Tat and Rev protein accumulation” (Retrovirology, 2017)

assay: in vitro; type: cell-based; conditions: human
Experimental: To assess the activity of compounds against HIV-1 strains having resistance to various ART drugs, assays were performed in the context of CEM-GXR cells. These cells express CD4, CXCR4, and coreceptor, CCR5 as well as an exogenous Tat-driven LTR-GFP expression cassette. Cultures were infected with different HIV-1 strains of interest, differing on their subtypes (A and B), and resistance to three major drug targets (reverse transcriptase, protease, and integrase). The culture contains serial dilutions of the molecule in the final concentrations from 0.156 to 5 μM for 833; 725 nM to 46.87 μM for 791; 1.95 to 62.5 μM for 892. Antiviral activity was evaluated in the assay by measuring inhibition of HIV-1 spread in a coculture of CEM-GXR cells containing 1% of HIV-1 infected (GFP positive) cells using flow cytometric analysis (GuavaSoft 2.2 software, Guava HT8, Millipore). To estimate the viable cell counts, the gate in a flow cytometer (Guava HT8) was set to cover 95% of the freshly passaged uninfected CEM-GXR cell or using ViaCount™. The same parameter was employed to gate viable cells in the inhibition assay and the number of gated cells was obtained by GuavaSoft 2.2 software. For assays using ViaCount™, sample acquisition and data analysis were performed with the selection of EasyFit analysis feature using the ViaCount™ software module.
Additional file 1: Figure S1. […] Cell viability was measured by an XTT assay. […] Cells were analyzed after 24 h incubation with the compounds at the indicated concentrations ranging between 0–47 μM (791), 0–5 μM (833), or 0–62.5 μM (892). Results are expressed as the percentage (%) of viable cells relative to DMSO treatment ±SEM of two independent experiments performed in triplicate. […] Images are cropped to show a representative field of view. b The dose range of the compounds which inhibit HIV-1 GagGFP expression in HeLa rtTA HIVGagGFP C7 cells was measured by mean fluorescence intensity and expressed relative to fluorescence intensity in DMSO-treated samples (N ≥ 3, *p ≤ 0.05, **p ≤ 0.01, and ***p ≤ 0.001). […]

Row | Compound | CC50 at 24 h [µM]
1 | Cc1cc(NCc2cccnc2)n2ncc(-c3ccc(Cl)cc3)c2n1 [Compound 791, 3-(4-chlorophenyl)-5-methyl-N-(3-pyridinylmethyl)pyrazolo[1,5-a]pyrimidin-7-amine] | 24
2 | O=C(NC(=S)NNC(=O)c1ccccc1O)c1ccc(-c2ccccc2)cc1 [Compound 833, N-([2-(2-hydroxybenzoyl)hydrazino]carbonothioyl}-4-biphenylcarboxamide] | > 5
3 | COc1ccc(C=NNC(=O)c2ccccc2O)cc1O [Compound 892, 2-hydroxy-N′-(3-hydroxy-4-methoxybenzylidene)benzohydrazide] | 60
